Laboratory results from patent US20190016689A1, “NOVEL FLUORINATED QUINAZOLINE DERIVATIVES AS EGFR INHIBITORS” (TRILLIUM THERAPEUTICS INC., priority 2016, published 2019).

What was measured:
LCK (Lymphocyte TK) = LCK (Lymphocyte TK) (Homo sapiens, UniProt P06239); test: Kinase assays, selectivity panel (qPCR); details: read-out: % Control @ 300 nM
EGFR (S752-I759del) = EGFR (S752-I759del) (Homo sapiens, UniProt P00533, DEL752-759); test: Kinase assays, selectivity panel (qPCR); details: read-out: % Control @ 300 nM
OVCAR-3 = test: NCI screening panel (SRB); details: Homo sapiens, OVCAR-3, 48 h; for CC50: read-out: LC50
SF-295 = test: NCI screening panel (SRB); type: cell-based; details: Homo sapiens, SF-295 (CNS), 48 h; for CC50: read-out: LC50 (the source's name)
PC-3 = test: NCI screening panel (SRB); type: cell-based; details: Homo sapiens, PC-3 (Prostate), 48 h; for CC50: read-out: LC50 (the source's name)
EGFR (T790M) = EGFR (T790M) (Homo sapiens, UniProt P00533, T790M); test: Kinase assays, selectivity panel (qPCR); details: read-out: % Control @ 300 nM
Sequence of EGFR (T790M) (P00533 25-1210 T790M): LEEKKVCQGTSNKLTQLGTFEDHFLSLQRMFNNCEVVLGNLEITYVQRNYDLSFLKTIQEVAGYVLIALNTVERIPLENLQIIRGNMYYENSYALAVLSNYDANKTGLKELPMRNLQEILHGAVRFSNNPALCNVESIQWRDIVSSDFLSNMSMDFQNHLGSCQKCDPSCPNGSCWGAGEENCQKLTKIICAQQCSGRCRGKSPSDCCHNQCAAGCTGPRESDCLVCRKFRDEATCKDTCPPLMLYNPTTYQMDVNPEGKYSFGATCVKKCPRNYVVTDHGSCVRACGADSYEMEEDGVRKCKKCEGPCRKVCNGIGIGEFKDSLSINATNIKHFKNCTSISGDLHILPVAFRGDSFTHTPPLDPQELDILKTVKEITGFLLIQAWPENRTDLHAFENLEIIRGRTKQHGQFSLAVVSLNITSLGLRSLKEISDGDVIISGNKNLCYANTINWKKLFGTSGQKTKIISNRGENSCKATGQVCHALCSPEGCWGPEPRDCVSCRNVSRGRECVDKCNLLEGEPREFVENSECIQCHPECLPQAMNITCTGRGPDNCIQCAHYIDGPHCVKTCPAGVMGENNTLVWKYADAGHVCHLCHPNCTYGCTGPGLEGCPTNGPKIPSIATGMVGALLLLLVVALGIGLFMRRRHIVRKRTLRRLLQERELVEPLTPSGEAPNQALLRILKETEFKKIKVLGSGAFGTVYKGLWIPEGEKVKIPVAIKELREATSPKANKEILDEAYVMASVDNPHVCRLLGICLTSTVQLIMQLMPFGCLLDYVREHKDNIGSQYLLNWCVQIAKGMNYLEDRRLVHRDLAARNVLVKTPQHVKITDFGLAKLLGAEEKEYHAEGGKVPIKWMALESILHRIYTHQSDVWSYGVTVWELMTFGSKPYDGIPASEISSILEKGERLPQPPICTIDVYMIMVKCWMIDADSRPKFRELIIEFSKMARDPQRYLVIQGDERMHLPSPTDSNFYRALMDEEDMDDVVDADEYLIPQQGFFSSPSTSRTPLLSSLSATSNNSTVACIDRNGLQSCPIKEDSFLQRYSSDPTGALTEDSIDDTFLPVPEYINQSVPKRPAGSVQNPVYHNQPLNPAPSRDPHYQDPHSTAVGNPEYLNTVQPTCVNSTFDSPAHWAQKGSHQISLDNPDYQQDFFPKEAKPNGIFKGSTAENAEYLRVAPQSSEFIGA

A498 = test: NCI screening panel (SRB); type: cell-based; details: Homo sapiens, A498 (Renal), 48 h; for CC50: read-out: LC50 (the source's name)
ERBB2 = ERBB2 (Homo sapiens, UniProt P04626); test: Kinase assays, selectivity panel (qPCR); details: read-out: % Control @ 300 nM
Sequence of ERBB2 (P04626 23-1255): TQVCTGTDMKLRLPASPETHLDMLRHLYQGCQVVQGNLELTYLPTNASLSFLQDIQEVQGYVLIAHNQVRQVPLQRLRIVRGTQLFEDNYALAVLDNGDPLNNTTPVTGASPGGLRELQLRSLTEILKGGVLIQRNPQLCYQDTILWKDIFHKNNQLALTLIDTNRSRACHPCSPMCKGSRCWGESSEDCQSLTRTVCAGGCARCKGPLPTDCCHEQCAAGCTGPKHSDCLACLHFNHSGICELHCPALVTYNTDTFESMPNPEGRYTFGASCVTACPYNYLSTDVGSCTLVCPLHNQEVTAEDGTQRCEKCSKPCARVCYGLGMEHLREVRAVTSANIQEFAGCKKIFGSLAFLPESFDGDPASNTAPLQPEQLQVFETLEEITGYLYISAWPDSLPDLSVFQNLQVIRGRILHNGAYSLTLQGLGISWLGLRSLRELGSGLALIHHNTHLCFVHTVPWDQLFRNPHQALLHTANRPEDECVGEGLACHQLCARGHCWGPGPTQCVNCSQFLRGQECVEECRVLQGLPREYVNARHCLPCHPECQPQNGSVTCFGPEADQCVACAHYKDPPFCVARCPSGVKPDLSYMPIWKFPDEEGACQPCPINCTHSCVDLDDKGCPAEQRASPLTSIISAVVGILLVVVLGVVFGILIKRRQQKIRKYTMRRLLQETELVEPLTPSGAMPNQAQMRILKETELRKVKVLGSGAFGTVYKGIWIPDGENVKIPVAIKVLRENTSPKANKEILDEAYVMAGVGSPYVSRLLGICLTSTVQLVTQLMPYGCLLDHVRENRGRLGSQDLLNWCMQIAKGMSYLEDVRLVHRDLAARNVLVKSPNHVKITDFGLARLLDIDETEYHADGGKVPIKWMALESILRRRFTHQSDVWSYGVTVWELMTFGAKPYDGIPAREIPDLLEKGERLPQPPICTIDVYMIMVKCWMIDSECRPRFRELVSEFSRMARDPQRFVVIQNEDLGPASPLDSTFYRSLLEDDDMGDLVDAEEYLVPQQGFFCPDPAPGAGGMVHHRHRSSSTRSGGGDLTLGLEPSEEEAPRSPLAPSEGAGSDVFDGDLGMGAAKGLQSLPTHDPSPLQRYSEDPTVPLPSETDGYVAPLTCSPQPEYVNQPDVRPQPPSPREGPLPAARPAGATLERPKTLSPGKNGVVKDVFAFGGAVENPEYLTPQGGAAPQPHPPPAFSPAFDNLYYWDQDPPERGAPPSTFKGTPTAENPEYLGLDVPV

SK-OV-3 = test: NCI screening panel (SRB); type: cell-based; details: Homo sapiens, SK-OV-3 (Ovarian), 48 h; for CC50: read-out: LC50 (the source's name)
CAKI-1 = test: NCI screening panel (SRB); type: cell-based; details: Homo sapiens, CAKI-1 (Renal), 48 h; for CC50: read-out: LC50 (the source's name)
NCI-H522 = test: NCI screening panel (SRB); type: cell-based; details: Homo sapiens, NCI-H522 (NSCLC), 48 h; for CC50: read-out: LC50 (the source's name)
NCI-H460 = test: NCI screening panel (SRB); type: cell-based; details: Homo sapiens, NCI-H460 (NSCLC), 48 h; for CC50: read-out: LC50 (the source's name)
LOXIMVI = test: NCI screening panel (SRB); type: cell-based; details: Homo sapiens, LOX IMVI, LOXIMVI (Melanoma), 48 h; for CC50: read-out: LC50 (the source's name)
SN12C = test: NCI screening panel (SRB); type: cell-based; details: Homo sapiens, SN12C (Renal), 48 h; for CC50: read-out: LC50 (the source's name)
HCC-2998 = test: NCI screening panel (SRB); type: cell-based; details: Homo sapiens, HCC-2998 (Colon), 48 h; for CC50: read-out: LC50 (the source's name)
M14 = test: cells; details: Homo sapiens, M14, 48 h; for CC50: read-out: LC50
EGFR (E746-A750del) = EGFR (E746-A750del) (Homo sapiens, UniProt P00533, DEL746-750); test: Kinase assays, selectivity panel (qPCR); details: read-out: % Control @ 300 nM
Sequence of EGFR (E746-A750del) (P00533 with tags, fused parts or gaps DEL746-750): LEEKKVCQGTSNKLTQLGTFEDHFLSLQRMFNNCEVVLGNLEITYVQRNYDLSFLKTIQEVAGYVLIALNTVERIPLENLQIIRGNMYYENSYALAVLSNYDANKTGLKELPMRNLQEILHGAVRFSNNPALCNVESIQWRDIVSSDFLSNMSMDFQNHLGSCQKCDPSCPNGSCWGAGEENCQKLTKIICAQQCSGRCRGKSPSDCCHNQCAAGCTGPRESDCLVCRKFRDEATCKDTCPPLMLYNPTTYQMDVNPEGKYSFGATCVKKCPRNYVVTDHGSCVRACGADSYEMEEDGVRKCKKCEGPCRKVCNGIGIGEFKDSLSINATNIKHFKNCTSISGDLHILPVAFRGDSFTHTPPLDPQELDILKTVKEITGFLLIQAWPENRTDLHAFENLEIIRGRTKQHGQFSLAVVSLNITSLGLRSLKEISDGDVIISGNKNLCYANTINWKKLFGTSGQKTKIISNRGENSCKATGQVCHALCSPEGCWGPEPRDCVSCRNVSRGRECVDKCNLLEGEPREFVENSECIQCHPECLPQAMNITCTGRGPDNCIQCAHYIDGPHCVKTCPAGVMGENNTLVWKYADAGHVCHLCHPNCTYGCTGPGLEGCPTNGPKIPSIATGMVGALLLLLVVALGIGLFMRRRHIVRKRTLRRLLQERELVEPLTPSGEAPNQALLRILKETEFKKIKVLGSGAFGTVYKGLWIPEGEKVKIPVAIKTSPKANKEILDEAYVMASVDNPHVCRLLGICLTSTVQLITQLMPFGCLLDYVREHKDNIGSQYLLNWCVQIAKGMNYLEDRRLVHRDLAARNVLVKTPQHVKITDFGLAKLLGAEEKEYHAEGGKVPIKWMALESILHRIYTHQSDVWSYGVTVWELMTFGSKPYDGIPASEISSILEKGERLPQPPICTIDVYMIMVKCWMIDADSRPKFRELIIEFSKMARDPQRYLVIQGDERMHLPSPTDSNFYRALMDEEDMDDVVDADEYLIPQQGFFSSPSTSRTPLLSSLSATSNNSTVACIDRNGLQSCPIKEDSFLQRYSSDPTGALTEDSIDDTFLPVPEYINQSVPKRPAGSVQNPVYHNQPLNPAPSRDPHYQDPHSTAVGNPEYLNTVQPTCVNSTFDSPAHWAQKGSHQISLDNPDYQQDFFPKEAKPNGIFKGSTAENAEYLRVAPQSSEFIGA

OVCAR-5 = test: NCI screening panel (SRB); type: cell-based; details: Homo sapiens, OVCAR-5 (Ovarian), 48 h; for CC50: read-out: LC50 (the source's name)
NCI-H226 = test: NCI screening panel (SRB); type: cell-based; details: Homo sapiens, NCI-H226 (NSCLC), 48 h; for CC50: read-out: LC50 (the source's name)
[1] = Chemical stability in PBS pH 7.4; type: physicochemical; details: 37° C.
Protocol: For PBS pH7.4: Prepare 100 mM bulk Na2HPO4 solution and 100 mM bulk NaH2PO4 solution. Place Na2HPO4 solution on a stirrer and slowly add NaH2PO4 solution until the pH is nearly 7.4 (±0.05).
The working solutions of test compound and control compound chlorambucil are prepared in DMSO at the concentration of 500 μM.
Place 2 μL of working solution of each sample in order into their proper 96-well rack. Add 198 μL of pre-incubated PBS pH 7.4 or simulated intestinal fluid into each vial of the cap-less Sample plate to achieve a final concentration of […]. The assay is performed in duplicate. Seal using a molded PTFE/Silicone plug. Then transfer the Sample plate to the Eppendorf Thermomixer Comfort plate shaker and shake at 37° C. at 1100 RPM. Take one of the glass vials at designated time points including 0, 30, 60, 120 and 240 min. For each time point, the initiation of the reaction is staggered so all time points are terminated with 1000 μL of cold quench solution (acetonitrile containing internal standards (IS, 200 nM Labetalol, 100 nM Alprazolam and 2 μM Ketoprofen) at the same time. Vortex for 1 minute. Centrifuge the samples in plate at 3,220 g for 5 minutes at 4° C. Transfer 100 μL of the supernatant to a new plate. The supernatant may be diluted with 100 μL or 200 μL water according to the LC/MS signal response and peak shape. Mix well and analyze samples using LC/MS/MS.

[2] = Log D determination (1-octanol/buffer); type: physicochemical
Protocol: Prepare the stock solutions of test compounds and control compound progesterone in DMSO at the concentration of 30 mM. If test compound could not be dissolved completely, make a 10 mM stock solution with DMSO.
Place 5 μL of stock solution (30 mM) or 15 μL of stock solution (10 mM) of each sample in order into their proper 96-well rack. […] Add one stir stick to each vial and seal using a molded PTFE/Silicone plug. […] After completion of incubation, remove the stir sticks using a big magnet. Then centrifuge the samples at 25° C. at 20,000 g for 20 minutes to separate the phases, and use pipette and syringe to remove the upper (1-octanol) and lower (buffer) phases to the empty tubes, respectively. Take aliquots of 5 μL from upper phases followed by addition of 495 μL of methanol. Vortex for 1 minute, and then take aliquots of 50 μL from the diluent followed by addition of 450 μL of methanol. And take aliquots of 50 μL from lower phases followed by addition of 450 μL of methanol. A certain proportion of ultrapure water may be used according to the peak shape. The dilution factor may be changed according to the Log D value and the LC/MS signal response.

Sequence of LCK (Lymphocyte TK) (P06239 whole entry): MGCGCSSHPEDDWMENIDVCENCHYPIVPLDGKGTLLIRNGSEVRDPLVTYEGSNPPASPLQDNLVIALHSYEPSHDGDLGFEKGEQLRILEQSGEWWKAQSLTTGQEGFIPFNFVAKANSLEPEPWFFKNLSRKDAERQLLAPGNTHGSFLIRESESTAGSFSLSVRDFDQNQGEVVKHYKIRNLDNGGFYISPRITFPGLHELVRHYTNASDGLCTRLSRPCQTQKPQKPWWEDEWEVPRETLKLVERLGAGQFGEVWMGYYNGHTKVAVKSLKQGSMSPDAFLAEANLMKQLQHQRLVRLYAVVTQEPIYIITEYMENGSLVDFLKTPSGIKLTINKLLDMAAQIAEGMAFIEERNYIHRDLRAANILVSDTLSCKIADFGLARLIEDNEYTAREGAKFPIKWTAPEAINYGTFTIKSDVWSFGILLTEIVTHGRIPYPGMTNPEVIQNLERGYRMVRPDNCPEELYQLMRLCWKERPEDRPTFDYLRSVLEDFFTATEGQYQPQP

Row | SMILES | remaining activity at 0.3 µM (LCK (Lymphocyte TK)) [%] | remaining activity at 0.3 µM (EGFR (S752-I759del)) [%] | GI50 (OVCAR-3) [nM] | CC50 (OVCAR-3) [µM] | GI50 (SF-295) [nM] | CC50 (SF-295) [µM] | GI50 (PC-3) [nM] | CC50 (PC-3) [µM] | remaining activity at 0.3 µM (EGFR (T790M)) [%] | GI50 (A498) [nM] | CC50 (A498) [µM] | remaining activity at 0.3 µM (ERBB2) [%] | GI50 (SK-OV-3) [nM] | CC50 (SK-OV-3) [µM] | GI50 (CAKI-1) [nM] | CC50 (CAKI-1) [µM] | GI50 (NCI-H522) [nM] | CC50 (NCI-H522) [µM] | GI50 (NCI-H460) [nM] | CC50 (NCI-H460) [µM] | also measured
1 | CN(C)C/C=C/C(=O)Nc1cc2c(Nc3ccc(F)c(Cl)c3F)ncnc2cc1OCCOC(F)F.O=C(O)/C=C\C(=O)O.O=C(O)/C=C\C(=O)O [Example I-9-MA, (E)-N-[4-(3-chloro-2,4-difluoro-anilino)-7-[2-(difluoromethoxy)ethoxy]quinazolin-6-yl]-4-(dimethylamino)but-2-enamide di-maleic acid salt] | 1.3 | 0.5 | 81.1 | 7.44 | 2050 | 33 | 2550 | 58.5 | 0.1 | 319 | 6 | 0 | < 10 | 27.7 | < 10 | 3.76 | < 10 | 9.17 | 2560 | 62 | GI50 (LOXIMVI): 944 nM; CC50 (LOXIMVI): 4.91 µM; GI50 (SN12C): 54 nM; CC50 (SN12C): 28.1 µM; GI50 (HCC-2998): 1140 nM; CC50 (HCC-2998): 5.67 µM; GI50 (M14): 1440 nM; CC50 (M14): 11 µM; remaining activity at 0.3 µM (EGFR (E746-A750del)): 3.6%; GI50 (OVCAR-5): 141 nM; CC50 (OVCAR-5): 47.9 µM; GI50 (NCI-H226): 1710 nM; CC50 (NCI-H226): 9.7 µM
2 | CN(C)C/C=C/C(=O)Nc1cc2c(Nc3ccc(F)c(Cl)c3)ncnc2cc1O[C@H]1CCOC1 [Afatinib, reference compound] |  |  |  |  |  |  |  |  |  |  |  |  |  |  |  |  |  |  |  |  | Remaining Percentage (%) in PBS at pH 7.4 ([1]; 120 min): 101.12%; Remaining Percentage (%) in PBS at pH 7.4 ([1]; 240 min): 105.37%; logD ([2]; pH 2.0): -2.46; logD ([2]; pH 7.4): 3.18
3 | O=C(/C=C/CN1CCCCC1)Nc1cc2c(Nc3ccc(F)c(Cl)c3F)ncnc2cc1OCCOC(F)F.O=C(O)/C=C\C(=O)O.O=C(O)/C=C\C(=O)O [Example I-10-MA, (E)-N-[4-(3-chloro-2,4-difluoro-anilino)-7-[2-(difluoromethoxy)ethoxy]quinazolin-6-yl]-4-(1-piperidyl)but-2-enamide di-maleic acid salt] | 1.3 | 0 | 390 | 16.8 | 1910 | 16 | 2380 | 51 | 0.75 | 313 | 5.92 | 0.05 | 40.5 | 36 | 22.9 | 6.53 | 55.9 | 7.8 | 2340 | 54.4 | GI50 (LOXIMVI): 1340 nM; CC50 (LOXIMVI): 5.49 µM; GI50 (SN12C): 281 nM; CC50 (SN12C): 41.2 µM; GI50 (HCC-2998): 1800 nM; CC50 (HCC-2998): 7.85 µM; GI50 (M14): 1820 nM; CC50 (M14): > 100 µM; remaining activity at 0.3 µM (EGFR (E746-A750del)): 2.7%; GI50 (OVCAR-5): 776 nM; CC50 (OVCAR-5): 67.1 µM; GI50 (NCI-H226): 1770 nM; CC50 (NCI-H226): > 100 µM
4 | CN(C)C/C=C/C(=O)Nc1cc2c(Nc3cccc(Cl)c3F)ncnc2cc1OCCOC(F)F.O=C(O)/C=C\C(=O)O [Example I-5-MA, (E)-N-[4-(3-chloro-2-fluoro-anilino)-7-[2-(difluoromethoxy)ethoxy]quinazolin-6-yl]-4-(dimethylamino)but-2-enamide dimaleic acid salt] |  |  |  |  |  |  |  |  |  |  |  |  |  |  |  |  |  |  |  |  | Remaining Percentage (%) in PBS at pH 7.4 ([1]; 120 min): 94.70%; Remaining Percentage (%) in PBS at pH 7.4 ([1]; 240 min): 91.17%; logD ([2]; pH 2.0): -2.17; logD ([2]; pH 7.4): 3.2
